According to patent US7728012B2, “Carboxamide compounds and their use as calpain inhibitors” (Abbott GmbH & Co. KG, priority 2006, dated 2010):

Columns and labels:
Format in all cases: biochemical
[1] = biological target: T1, recombinant human cathepsin S (Homo sapiens, UniProt P25774); experiment: Cathepsin S kinetic fluorescence enzyme inhibition assay; conditions: selectivity ratio versus calpain I
T1 construct: purchased Calbiochem 219343; host or cells: E. coli
Protocol: (§1) The following solutions and buffers were employed: • HBS (for 40 ml): 800 μl M HEPES; 2.16 ml 100 mM KCl; 4.8 ml 1M NaCl; 3.59 ml 5% glucose; 60 μl μM MgSO4; 400 μl 100 mM Na pyruvate, 28.19 ml water; pH 7.2-7.5. • lysis buffer (for 20 ml): 400 μl M Tris pH 8.2; 2.74 ml 1M NaCl; 520 μl 0.5M EDTA; 2 ml 10% triton X-100; 0.8 ml (=1:25) CompletePlus (1 tablet/2 ml H2O); 200 μl 100 mM Pefabloc; 13.34 ml water, pH 8.2. • TBST (10×) (for 1 l): 100 mM Tris (12.1 g); 1.5M NaCl (87 g); 1% Tween 20 (10 g), adjusted to pH 8. I Enzyme Inhibition In Vitro: • Testing for blockade of the corresponding enzymic activities was carried out by means of kinetic fluorescence assays (excitation 390 nm, emission 460 nm). • Apparent Ki values were calculated from the experimentally determined IC50 values by the Cheng-Prussoff relation assuming a reversible competitive enzyme inhibition. The Km values of the substrates used under the assay conditions indicated above were: 90 μM (Z-Phe-Arg-AMC, cathepsin B), 10 μM (Z-Gly-Pro-Arg-AMC, cathepsin K), 2 μM (Z-Phe-Arg-AMC, cathepsin L), and 30 μM (Z-Val-Val-Arg-AMC, cathepsin S). • The indicated Ki values are averages of the inhibition constants calculated on the basis of 2 to 4 independent dose-effect plots.
(§2) The following assays were used: • 1. Calpain I: • 20 nM calpain-I—isolated from human erythrocytes (Calbiochem #208713), 100 μM Suc-Leu-Tyr-AMC (Bachem #1-1355) as substrate in buffer with 62 mM imidazole, 0.3 mM CaCl2, 0.10% CHAPS, 0.05% BSA, 1 mM DTT at pH 7.3 and room temperature. • 2. Cathepsin B: • 0.25 nM cathepsin B—isolated from human liver (Calbiochem #219362), 100 μM Z-Phe-Arg-AMC (Bachem #I-1160) as substrate 50 mM MES, 2 mM EDTA, 0.05% Brij 35, 2.5 mM L-cysteine, pH 6.0, room temperature. • 3. Cathepsin K: • 3 nM cathepsin K—activated from recombinant human procathepsin K from E. coli (Calbiochem #342001), 10 μM Z-Gly-Pro-Arg-AMC (Biomol #P-142) as substrate in 50 mM MES, 2 mM EDTA, 0.05% Brij 35, 2.5 mM L-cysteine, pH 6.0, room temperature. • 4. Cathepsin L: • 1 nM cathepsin L—isolated from human liver (Calbiochem #219402), 2 μM Z-Phe-Arg-AMC (Bachem #1-1160) as substrate in 50 mM MES, 2 mM EDTA, 0.05% Brij 35, 2.5 mM L-cysteine, pH 6.0, room temperature. • 5. Cathepsin S: • 0.5 nM recombinant human cathepsin S from E. coli (Calbiochem #219343), 20 μM Z-Val-Val-Arg-AMC (Bachem #1-1540) as substrate in 50 mM MES, 2 mM EDTA, 0.05% Brij 35, 2.5 mM L-cysteine, pH 6.0, room temperature. • The results of the in vitro determination are indicated in Table 1. The following abbreviations are used in Table 1: • The “Calpain activity” column, ++ stands for a calpain Ki (Ki(calpain)) of ≦40 nM and + means: 40 nM<Ki(Calpain)≦100 nM. • The “Sel. cat. B” column indicates the Ki(cathepsin B)/Ki(calpain) ratio. In this connection, ++ means a Ki(cathepsin B)/Ki(calpain) ratio of ≧30 and + means 10≦Ki(cathepsin B)/Ki(calpain)<30. • The “Sel. cat. K” column indicates the Ki(cathepsin K)/Ki(calpain) ratio. In this connection, ++ means a Ki(cathepsin K)/Ki(calpain) ratio of ≧30 and + means 10≦Ki(cathepsin K)/Ki(calpain)<30. • The “Sel. cat. L” column indicates the Ki(cathepsin L)/Ki(calpain) ratio. In this connection, ++ means a Ki(cathepsin L)/Ki(calpain) ratio of ≧50 and + means 30≦Ki(cathepsin L)/Ki(calpain)<50. • The “Sel. cat. S” column indicates the Ki(cathepsin S)/Ki(calpain) ratio. In this connection, ++ means a Ki(cathepsin S)/Ki(calpain) ratio of ≧100 and + means 50≦Ki(cathepsin S)/Ki(calpain)<100.

[2] = biological target: T2, calpain-I isolated from human erythrocytes (Homo sapiens, UniProt P07384); experiment: Calpain I kinetic fluorescence enzyme inhibition assay; conditions: apparent Ki from IC50 by Cheng-Prussoff; average of 2 to 4 dose-effect plots
T2 construct: calpain-I—isolated from human erythrocytes; purchased Calbiochem 208713; host or cells: human erythrocytes (tissue isolate)
T2 sequence (P07384 1-714): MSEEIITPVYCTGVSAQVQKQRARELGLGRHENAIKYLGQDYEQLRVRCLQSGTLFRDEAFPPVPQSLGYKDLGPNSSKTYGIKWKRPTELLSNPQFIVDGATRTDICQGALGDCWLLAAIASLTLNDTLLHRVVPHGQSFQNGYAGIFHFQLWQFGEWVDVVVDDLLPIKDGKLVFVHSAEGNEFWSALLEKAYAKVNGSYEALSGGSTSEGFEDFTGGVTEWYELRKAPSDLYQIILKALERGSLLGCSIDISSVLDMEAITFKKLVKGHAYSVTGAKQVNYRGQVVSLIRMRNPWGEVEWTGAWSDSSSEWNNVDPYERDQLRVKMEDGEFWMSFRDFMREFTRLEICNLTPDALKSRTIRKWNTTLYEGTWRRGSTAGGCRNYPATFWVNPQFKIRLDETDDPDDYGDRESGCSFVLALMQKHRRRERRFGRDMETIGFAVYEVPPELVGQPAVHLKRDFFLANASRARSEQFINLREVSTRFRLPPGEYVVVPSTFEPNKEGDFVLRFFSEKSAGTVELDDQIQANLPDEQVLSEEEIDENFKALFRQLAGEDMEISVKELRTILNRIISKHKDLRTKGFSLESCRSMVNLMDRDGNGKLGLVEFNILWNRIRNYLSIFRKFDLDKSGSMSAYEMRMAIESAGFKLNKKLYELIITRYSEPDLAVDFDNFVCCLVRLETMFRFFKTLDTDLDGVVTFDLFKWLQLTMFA
T2 sequence (P04632 1-268 partner): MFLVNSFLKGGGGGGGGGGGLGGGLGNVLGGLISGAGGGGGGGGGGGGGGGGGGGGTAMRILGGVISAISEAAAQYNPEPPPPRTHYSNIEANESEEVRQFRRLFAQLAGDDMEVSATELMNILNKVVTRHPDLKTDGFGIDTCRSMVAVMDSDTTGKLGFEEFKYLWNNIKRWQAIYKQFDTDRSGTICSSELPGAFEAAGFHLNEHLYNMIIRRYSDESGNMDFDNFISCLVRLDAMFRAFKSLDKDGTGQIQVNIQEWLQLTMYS
Protocol: as §1, §2

[3] = biological target: T3, cathepsin L isolated from human liver (Homo sapiens, UniProt P07711); experiment: Cathepsin L kinetic fluorescence enzyme inhibition assay; conditions: selectivity ratio versus calpain I
T3 construct: cathepsin L—isolated from human liver; purchased Calbiochem 219402; host or cells: human liver (tissue isolate)
T3 sequence (P07711 114-333): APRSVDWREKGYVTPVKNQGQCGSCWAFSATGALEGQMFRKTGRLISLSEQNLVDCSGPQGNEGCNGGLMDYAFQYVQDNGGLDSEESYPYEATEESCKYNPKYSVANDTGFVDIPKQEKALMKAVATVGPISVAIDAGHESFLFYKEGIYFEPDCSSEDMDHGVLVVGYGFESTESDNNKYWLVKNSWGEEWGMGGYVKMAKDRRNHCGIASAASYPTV
Protocol: as §1, §2

T1 sequence (P25774 115-331): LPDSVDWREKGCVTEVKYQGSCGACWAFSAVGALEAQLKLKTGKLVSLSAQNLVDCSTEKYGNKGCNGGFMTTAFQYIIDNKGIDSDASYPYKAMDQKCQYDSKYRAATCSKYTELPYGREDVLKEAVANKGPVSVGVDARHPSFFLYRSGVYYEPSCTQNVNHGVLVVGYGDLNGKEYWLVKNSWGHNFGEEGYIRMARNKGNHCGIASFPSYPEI

Structure (SMILES)	Sel cat. S (Ki(cathepsin S)/Ki(calpain) ratio) [1]	Ki [2]	Sel cat. L (Ki(cathepsin L)/Ki(calpain) ratio) [3]
NC(=O)C(=O)C(Cc1ccccc1)NC(=O)c1cccnc1-n1cnc(-c2ccc(Cl)cc2)c1 (centres unmarked) [Example 9, N-(3-Amino-1-benzyl-2,3-dioxopropyl)-2-[4-(4-chlorophenyl)-1H-imidazol-1-yl]nicotinamide]	++ (Ki(cathepsin S)/Ki(calpain) ratio of ≧100)	≤ 40 nM	+ (30≦Ki(cathepsin L)/Ki(calpain)<50)
COc1ccc(-c2cn(-c3ncccc3C(=O)NC(Cc3ccccc3)C(=O)C(N)=O)cn2)cc1 (centres unmarked) [Example 13, N-(3-Amino-1-benzyl-2,3-dioxopropyl)-2-[4-(4-methoxyphenyl)-1H-imidazol-1-yl]nicotinamide]	+ (50≦Ki(cathepsin S)/Ki(calpain)<100)	40 to 100 nM	++ (Ki(cathepsin L)/Ki(calpain) ratio of ≧50)
CCCCC(NC(=O)c1cccnc1-n1cnc(-c2ccc(N3CCOCC3)cc2)c1)C(=O)C(N)=O.Cl (centres unmarked) [Example 15, N-{1-[Amino(oxo)acetyl]pentyl}-2-[4-(4-morpholin-4-ylphenyl)-1H-imidazol-1-yl]nicotinamide hydrochloride]	+ (50≦Ki(cathepsin S)/Ki(calpain)<100)	≤ 40 nM	++ (Ki(cathepsin L)/Ki(calpain) ratio of ≧50)
CCCCC(NC(=O)c1cccnc1-n1cnc(-c2ccc(C(F)(F)F)cc2)c1)C(=O)C(N)=O.Cl (centres unmarked) [Example 17, N-{1-[Amino(oxo)acetyl]pentyl}-2-{4-[4-(trifluoromethyl)phenyl]-1H-imidazol-1-yl}nicotinamide hydrochloride]	+ (50≦Ki(cathepsin S)/Ki(calpain)<100)	≤ 40 nM	++ (Ki(cathepsin L)/Ki(calpain) ratio of ≧50)
Cl.NC(=O)C(=O)C(Cc1ccccc1)NC(=O)c1cccnc1-n1cnc(-c2ccc(C(F)(F)F)cc2)c1 (centres unmarked) [Example 18, N-(3-Amino-1-benzyl-2,3-dioxopropyl)-2-{4-[4-(trifluoromethyl)phenyl]-1H-imidazol-1-yl}nicotinamide hydrochloride]	++ (Ki(cathepsin S)/Ki(calpain) ratio of ≧100)	≤ 40 nM	+ (30≦Ki(cathepsin L)/Ki(calpain)<50)
CCCCC(NC(=O)c1cc(Cl)cnc1-n1cnc(-c2ccccc2)c1)C(=O)C(N)=O.Cl (centres unmarked) [Example 24, N-{1-[Amino(oxo)acetyl]pentyl}-5-chloro-2-(4-phenyl-1H-imidazol-1-yl)nicotinamide hydrochloride]	–	≤ 40 nM	+ (30≦Ki(cathepsin L)/Ki(calpain)<50)
NC(=O)C(=O)C(Cc1ccccc1)NC(=O)c1cccnc1-n1ccc(-c2ccc(Cl)cc2)n1 (centres unmarked) [Example 39, N-(3-Amino-1-benzyl-2,3-dioxopropyl)-2-[3-(4-chlorophenyl)-1H-pyrazol-1-yl]nicotinamide]	++ (Ki(cathepsin S)/Ki(calpain) ratio of ≧100)	40 to 100 nM	++ (Ki(cathepsin L)/Ki(calpain) ratio of ≧50)
CCCCC(NC(=O)c1cccnc1-n1ccc(-c2ccc(OC)cc2)n1)C(=O)C(N)=O (centres unmarked) [Example 49, N-{1-[Amino(oxo)acetyl]pentyl}-2-[3-(4-methoxyphenyl)-1H-pyrazol-1-yl]nicotinamide]	++ (Ki(cathepsin S)/Ki(calpain) ratio of ≧100)	40 to 100 nM	+ (30≦Ki(cathepsin L)/Ki(calpain)<50)
CCCCC(NC(=O)c1cccnc1-n1ccc(-c2cccc(N3CCOCC3)c2)n1)C(=O)C(N)=O (centres unmarked) [Example 59, N-{1-[Amino(oxo)acetyl]pentyl}-2-[3-(3-morpholin-4-ylphenyl)-1H-pyrazol-1-yl]nicotinamide]	+ (50≦Ki(cathepsin S)/Ki(calpain)<100)	≤ 40 nM	++ (Ki(cathepsin L)/Ki(calpain) ratio of ≧50)
Cc1cn(-c2ncccc2C(=O)NC(Cc2ccccc2)C(=O)C(N)=O)nc1-c1ccccc1 (centres unmarked) [Example 86, N-[3-Amino-2,3-dioxo-1-(phenylmethyl)propyl]-2-(4-methyl-3-phenyl-1H-pyrazol-1-yl)pyridine-3-carboxamide]	–	≤ 40 nM	++ (Ki(cathepsin L)/Ki(calpain) ratio of ≧50)
COCc1cn(-c2ncccc2C(=O)NC(Cc2ccccc2)C(=O)C(N)=O)nc1-c1ccc(F)cc1 (centres unmarked) [Example 170, N-[3-Amino-2,3-dioxo-1-(phenylmethyl)propyl]-2-{3-(4-fluorophenyl)-4-[(methyloxy)methyl]-1H-pyrazol-1-yl}pyridine-3-carboxamide]	–	40 to 100 nM	+ (30≦Ki(cathepsin L)/Ki(calpain)<50)
NC(=O)C(=O)C(Cc1ccccc1)NC(=O)c1cccnc1-n1cc(COc2ccccc2)c(-c2ccc(F)cc2)n1 (centres unmarked) [Example 179, N-[3-Amino-2,3-dioxo-1-(phenylmethyl)propyl]-2-{3-(4-fluorophenyl)-4-[(phenyloxy)methyl]-1H-pyrazol-1-yl}pyridine-3-carboxamide]	++ (Ki(cathepsin S)/Ki(calpain) ratio of ≧100)	–	+ (30≦Ki(cathepsin L)/Ki(calpain)<50)
